Laboratory results: US20250074910A1, “MENIN INHIBITOR AND USE THEREOF” (HITGEN INC., priority 2021, published 2025)

How the values were obtained:
[1] = molecular target: Menin/MLL-4-43 peptide interaction (Homo sapiens (Human), UniProt O00255); test: Menin-MLL interaction inhibitory activity assay (fluorescence polarization competition); type: binding; conditions: FITC-MLL4-43-peptide, Menin recombinant protein
In short: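 Menin (8 nM solution) was preincubated 15 min with compound, then FITC-MLL4-43 peptide (10 nM solution) was added and shaken for 60 min at 25 °C. The buffer was 50 mM Tris pH 7.5, 50 mM NaCl, 1 mM DTT. IC50 was derived from fluorescence polarization read at 485/520 nm.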

[2] = test system: MOLM-13; test: Cell proliferation inhibition (CellTiter-Glo), MOLM-13; type: cell-based; conditions: Homo sapiens, MOLM-13, 168 h, MOLM-13 cells
In short: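 CellTiter-Glo luminescence read-out (10 min RT) after 72-168 h culture at 37° C, 5% CO2; cells plated 5,000-20,000/well; compound final 1 nM-10 μM; IC50 from curve fit.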

[3] = Stability in human liver microsomes; type: in vitro ADME; conditions: human, liver microsomes, pH 7.4, Human; 0.5 mg/mL microsomal protein, 1.00 μM compound, NADPH; read-out: Half life T1/2, human liver microsomes
In short: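 Compound at 1.00 μM incubated at 37° C with 0.5 mg/mL liver microsomal protein and 2.00 mM NADPH in 100 mM phosphate buffer pH 7.4, sampled 0–60 min with acetonitrile quench. Parent remaining by LC-MS/MS; T½ from ln-remaining slope, CLint scaled by microsomal concentration and conversion factor.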

[4] = molecular target: hERG potassium ion channel (Homo sapiens (Human), UniProt Q12809); test: hERG potassium channel effect test (manual patch clamp, HEK293 cells overexpressing hERG); type: cell-based; conditions: for inhibition at 30 μM: human, HEK293 cells overexpressing hERG potassium ion channels, read-out: Average inhibition rate of hERG current at the highest compound tested concentration; for IC50: manual patch clamp, highest test concentration 30 μM
Description: Test Example 6: hERG Potassium Channel Effect Test
The hERG inhibition test was performed on some of the example compounds of the present disclosure using the manual electrophysiological patch clamp method. The cell line was derived from HEK293 cells that overexpressed hERG potassium ion channels. The specific experimental protocol was developed by PharmaCore Labs with reference to literature published in peer-reviewed journals and was performed by PharmaCore Labs in accordance with its standard experimental operating procedures. The highest test concentration was 30 μM.

Sequence of hERG potassium ion channel (Q12809 whole entry): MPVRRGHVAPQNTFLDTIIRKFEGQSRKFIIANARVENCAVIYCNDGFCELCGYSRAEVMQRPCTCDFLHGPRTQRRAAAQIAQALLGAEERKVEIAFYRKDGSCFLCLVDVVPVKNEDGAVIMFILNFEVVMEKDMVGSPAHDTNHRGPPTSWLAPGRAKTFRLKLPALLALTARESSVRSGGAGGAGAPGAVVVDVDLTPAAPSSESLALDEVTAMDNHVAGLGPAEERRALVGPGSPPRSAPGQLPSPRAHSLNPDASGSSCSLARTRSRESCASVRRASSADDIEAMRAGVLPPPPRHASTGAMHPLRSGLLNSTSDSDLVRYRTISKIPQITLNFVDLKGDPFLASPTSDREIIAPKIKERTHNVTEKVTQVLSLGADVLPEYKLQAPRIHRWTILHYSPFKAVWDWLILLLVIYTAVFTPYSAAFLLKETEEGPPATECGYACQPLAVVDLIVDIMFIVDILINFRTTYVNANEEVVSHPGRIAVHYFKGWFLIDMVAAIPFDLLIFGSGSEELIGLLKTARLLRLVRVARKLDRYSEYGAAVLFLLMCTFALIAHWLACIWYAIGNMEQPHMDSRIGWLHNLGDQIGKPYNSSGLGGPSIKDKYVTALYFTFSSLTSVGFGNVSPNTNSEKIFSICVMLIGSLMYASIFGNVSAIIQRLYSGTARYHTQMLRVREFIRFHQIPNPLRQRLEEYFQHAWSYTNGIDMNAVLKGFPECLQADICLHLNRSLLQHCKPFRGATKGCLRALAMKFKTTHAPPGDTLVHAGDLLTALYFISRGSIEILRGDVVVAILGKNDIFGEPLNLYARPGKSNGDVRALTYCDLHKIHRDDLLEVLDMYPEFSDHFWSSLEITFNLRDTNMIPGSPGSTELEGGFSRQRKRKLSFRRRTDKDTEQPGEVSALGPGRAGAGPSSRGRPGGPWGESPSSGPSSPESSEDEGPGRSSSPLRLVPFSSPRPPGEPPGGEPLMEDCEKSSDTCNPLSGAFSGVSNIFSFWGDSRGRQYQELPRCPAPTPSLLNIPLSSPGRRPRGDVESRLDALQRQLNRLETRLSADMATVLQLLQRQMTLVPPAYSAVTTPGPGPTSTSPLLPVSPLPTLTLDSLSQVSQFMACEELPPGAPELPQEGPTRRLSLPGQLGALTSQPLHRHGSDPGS
Sequence of Menin/MLL-4-43 peptide interaction (O00255 whole entry, species assumed): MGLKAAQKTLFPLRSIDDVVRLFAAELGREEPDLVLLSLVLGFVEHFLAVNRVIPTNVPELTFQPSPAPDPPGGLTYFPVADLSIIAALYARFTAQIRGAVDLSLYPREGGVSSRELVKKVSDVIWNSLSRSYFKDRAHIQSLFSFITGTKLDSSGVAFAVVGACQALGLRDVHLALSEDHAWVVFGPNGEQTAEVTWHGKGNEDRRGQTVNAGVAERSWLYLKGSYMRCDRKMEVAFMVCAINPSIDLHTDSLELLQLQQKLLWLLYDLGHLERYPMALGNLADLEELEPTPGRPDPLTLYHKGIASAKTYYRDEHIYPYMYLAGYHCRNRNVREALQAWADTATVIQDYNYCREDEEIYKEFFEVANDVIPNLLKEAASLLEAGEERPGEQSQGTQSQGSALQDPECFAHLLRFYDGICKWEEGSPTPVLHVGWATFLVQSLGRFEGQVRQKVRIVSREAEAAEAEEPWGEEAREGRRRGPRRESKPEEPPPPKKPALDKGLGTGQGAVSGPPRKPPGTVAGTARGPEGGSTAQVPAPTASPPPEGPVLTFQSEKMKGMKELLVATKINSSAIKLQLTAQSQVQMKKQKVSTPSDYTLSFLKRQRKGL

| Compound | IC50 [1] [µM] | GI50 [2] [nM] | half-life at 1 μM [3] [h] | inhibition at 30 μM [4] [%] | IC50 [4] [µM] |
| --- | --- | --- | --- | --- | --- |
| CCN(C(=O)c1cc(F)ccc1Oc1cncnc1N1CC2(CCN(C[C@H]3CC[C@]4(CC3)CC(COC)(COC)C(=O)N4)CC2)C1)C(C)C [Example 17] | 0.005 | 7.9 | 0.522 | – | – |
| COCC1(COC)C[C@]2(CC[C@@H](CN3CCC4(CC3)CN(c3ncnnc3Oc3ccc(F)cc3C(=O)N(C(C)C)C(C)C)C4)CC2)NC1=O [Example 20] | 0.006 | 36.1 | 1.25 | 13.2 | > 30 |
| COC[C@@H]1C[C@]2(CC[C@@H](CN3CCC4(CC3)CN(c3ncnnc3Oc3ccc(F)cc3C(=O)N(C(C)C)C(C)C)C4)CC2)NC1=O [Example 38-2] | 0.0028 | 23.3 | 1.04 | – | – |
| CC(C)N(C(=O)c1cc(F)ccc1Oc1nncnc1N1CC2(CCN(CC3CC4CCC3CC43CCC(=O)N3)CC2)C1)C(C)C (single isomer, unassigned) [Example 15-1a] | 0.0347 | 154 | 0.614 | – | – |
| COC[C@H]1C[C@]2(CC[C@@H](CN3CCC4(CC3)CN(c3ncnnc3Oc3ccc(F)cc3C(=O)N(C(C)C)C(C)C)C4)CC2)NC1=O [Example 38-1] | 0.0163 | 194 | 1.47 | 10.3 | > 30 |
